What was measured:
Assay in all cases: relative viability (nuclei count vs DMSO), 5 days (fraction); higher = more cells survive
NCI-H2126 = system: NCI-H2126
In short: (§1)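 Each reported value is a median over duplicate plates. It expresses relative viability: treated-well nuclei count divided by vehicle-well nuclei count. Lung cancer cell lines in 1536-well plates were dosed by pin tool a day after seeding, alone with one drug or with a fixed anchor-drug dose plus five library-drug doses (not always all listed) in √10 steps, and nuclei were counted after 5 days.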

NCI-H2228 = system: NCI-H2228
In short: as §1

NCI-H2342 = system: NCI-H2342
In short: as §1

NCI-H23 = system: NCI-H23
In short: as §1

NCI-H2405 = system: NCI-H2405
In short: as §1

NCI-H322M = system: NCI-H322M
In short: as §1

NCI-H460 = system: NCI-H460
In short: as §1

NCI-H647 = system: NCI-H647
In short: as §1

NCI-H650 = system: NCI-H650
In short: as §1

NCI-H661 = system: NCI-H661
In short: as §1

NCI-H838 = system: NCI-H838
In short: as §1

PC-14 = system: PC-14
In short: as §1

`Cc1csc(=NC2CCCCC2)n1/N=C/c1ccc(O)c(O)c1O` [MIM1] + CC(=O)c1c(C)c2cnc(Nc3ccc(N4CCNCC4)cn3)nc2n(C2CCCC2)c1=O [Palbociclib] (partner 0.5 µM) showed a relative viability (NCI-H2126; first compound 6.325 µM) of 0.34, a relative viability (NCI-H2126; first compound 20 µM) of 0.329 and a relative viability (NCI-H2228; first compound 0.2 µM) of 0.835. It also gave a relative viability (NCI-H2228; first compound 0.6325 µM) of 0.646, a relative viability (NCI-H2228; first compound 2 µM) of 0.899 and a relative viability (NCI-H2228; first compound 6.325 µM) of 0.177. For the same compound, the relative viability (NCI-H2228; first compound 20 µM) was 0.133, the relative viability (NCI-H2342; first compound 0.2 µM) was 0.525 and the relative viability (NCI-H2342; first compound 0.6325 µM) was 0.543. The relative viability (NCI-H2342; first compound 2 µM) was 0.573, the relative viability (NCI-H2342; first compound 6.325 µM) was 0.515 and the relative viability (NCI-H2342; first compound 20 µM) was 0.57. The relative viability (NCI-H23; first compound 0.2 µM) was 0.518, the relative viability (NCI-H23; first compound 0.6325 µM) was 0.51 and the relative viability (NCI-H23; first compound 2 µM) was 0.413. For the same compound, the relative viability (NCI-H23; first compound 6.325 µM) was 0.19, the relative viability (NCI-H23; first compound 20 µM) was 0.194 and the relative viability (NCI-H2405; first compound 0.2 µM) was 0.512. The relative viability (NCI-H2405; first compound 0.6325 µM) was 0.549, the relative viability (NCI-H2405; first compound 2 µM) was 0.605 and the relative viability (NCI-H2405; first compound 6.325 µM) was 0.383. It also gave a relative viability (NCI-H2405; first compound 20 µM) of 0.351, a relative viability (NCI-H322M; first compound 0.2 µM) of 0.466 and a relative viability (NCI-H322M; first compound 0.6325 µM) of 0.466. The relative viability (NCI-H322M; first compound 2 µM) was 0.488, the relative viability (NCI-H322M; first compound 6.325 µM) was 0.459 and the relative viability (NCI-H322M; first compound 20 µM) was 0.384. The relative viability (NCI-H460; first compound 0.2 µM) was 0.219, the relative viability (NCI-H460; first compound 0.6325 µM) was 0.169 and the relative viability (NCI-H460; first compound 2 µM) was 0.106. The relative viability (NCI-H460; first compound 6.325 µM) was 0.0475, the relative viability (NCI-H460; first compound 20 µM) was 0.027 and the relative viability (NCI-H647; first compound 0.2 µM) was 0.395. For the same compound, the relative viability (NCI-H647; first compound 0.6325 µM) was 0.404, the relative viability (NCI-H647; first compound 2 µM) was 0.381 and the relative viability (NCI-H647; first compound 6.325 µM) was 0.338. The relative viability (NCI-H647; first compound 20 µM) was 0.0937, the relative viability (NCI-H650; first compound 0.2 µM) was 0.372 and the relative viability (NCI-H650; first compound 0.6325 µM) was 0.359. It also gave a relative viability (NCI-H650; first compound 2 µM) of 0.317, a relative viability (NCI-H650; first compound 6.325 µM) of 0.366 and a relative viability (NCI-H650; first compound 20 µM) of 0.159. For the same compound, the relative viability (NCI-H661; first compound 0.2 µM) was 0.404, the relative viability (NCI-H661; first compound 0.6325 µM) was 0.42 and the relative viability (NCI-H661; first compound 2 µM) was 0.348. For the same compound, the relative viability (NCI-H661; first compound 6.325 µM) was 0.33, the relative viability (NCI-H661; first compound 20 µM) was 0.301 and the relative viability (NCI-H838; first compound 0.2 µM) was 0.202. It also gave a relative viability (NCI-H838; first compound 0.6325 µM) of 0.26, a relative viability (NCI-H838; first compound 2 µM) of 0.216 and a relative viability (NCI-H838; first compound 6.325 µM) of 0.169. The relative viability (NCI-H838; first compound 20 µM) was 0.168, the relative viability (PC-14; first compound 0.2 µM) was 0.475 and the relative viability (PC-14; first compound 0.6325 µM) was 0.554. It also gave a relative viability (PC-14; first compound 2 µM) of 0.464, a relative viability (PC-14; first compound 6.325 µM) of 0.454 and a relative viability (PC-14; first compound 20 µM) of 0.145.
